Reference: patent publication EP0330283A1, “Novel 5,6-diphenyl-1,2-dihydro-3H-pyrrolo[1,2-a]pyrrole-1-carboxylic acid derivatives” (HISAMITSU PHARMACEUTICAL CO., INC., priority 1988, dated 1989)

Columns and labels:
[1] = tested on: arachidonic acid aggregation; assay: Inhibitory actions on blood platelet aggregation induced by arachidonic acid (Born's nephelometry, platelet rich plasma); assay type: cell-based; details: arachidonic acid (350µM), rabbit PRP; for inhibition at 3 µM / inhibition at 10 µM / inhibition at 30 µM: Oryctolagus cuniculus, Platelet, read-out: Inhibiting rate
Description: (§1) Nine (9) ml of blood were drawn from the concha artery of a rabbit into a syringe containing therein 1 ml of a 3.2% solution of sodium citrate, after which the whole mass was centrifuged at 1100 rpm for 10 minutes to collect platelet rich plasma (PRP). The blood from which the PRP had been collected was again centrifuged at 3000 rpm for 5 minutes to collect platelet poor plasma (PPP). The PRP was adjusted to have 500,000/µl of platelets (thrombocytes) by the use of the PPP.
(§2) Four hundred and forty-five (445)µl of the thus adjusted PRP were introduced into a cuvette, warmed to 37° C for 5 minutes, incorporated with 5µl of a solution of each of the test compounds, further warmed for two minutes and then incorporated with 50µl of collagen (10µg/ml) or 50µl of arachidonic acid (350µM) thereby to induce platelet aggregation. The platelet aggregation was measured in accordance with the Born's nephelometry by the use of an Aggregometer produced by Sysmex Co.

[2] = tested on: gastric mucous damage; assay: Gastric mucous damage test in rats; assay type: in vivo; details: 10 mg/kg orally after fasting for 18 hours; male Wistar rats; stomachs observed 3.5 hours later
Description: Using, as test animals, male rats of Wistar strain each weighing approximately 160g, the compounds of Examples 6 and 40 as well as indomethacin were each orally administered to the rats at the dose indicated in the following Table after their fasting for 18 hours. Three and a half (3.5) hours later, the rats were dissected to remove the stomachs therefrom. 10ml of a 70% ethanol were injected into the stomachs to fix them, and the stomachs were cut and washed with water and then visually observed to find whether ulcers were formed therein.

[3] = tested on: carrageenin-induced paw edema; assay: Inhibitory actions on carrageenin-induced paw edema in rats; assay type: in vivo; details: Rattus norvegicus, po, 60 min before carrageenin, male Wistar rats, 3 hours after induction, vs control group, read-out: Inhibition rate; for inhibition in vivo at 30 mg/kg: 30 mg/kg orally; for inhibition in vivo at 15 mg/kg: 15 mg/kg orally
Description: Using, as test animals, male rats of Wistar strain each weighing approximately 150g, 0.1 ml of 1% x-carrageenin was subcutaneously injected into the paw of each rat to induce the reaction. Since then, the volume of paw edema was measured with the lapse of time. Each compound indicated in the following Table was orally administered to the rats 60 minutes before the induction of the reaction. As shown in the following Table, the results were expressed in terms of inhibition rate in comparison with those in control group 3 hours after the induction of the reaction.

[4] = tested on: writhing induced by acetic acid; assay: Inhibitory actions on the writhing induced by acetic acid in mice; assay type: in vivo; details: 30 mg/kg orally, 30 min before 0.6% acetic acid; male ddY mice; number of writhing vs control group
Description: As test animals, there were provided groups consisting of 7-9 male ddY strain mice weighing 20-24g. Each of the compounds indicated in the following table was orally administered to the mice of one group. Thirty minutes later, 0.6% acetic acid was abdominally administered at a dose of 0.1ml/10g. Counting of the number of writhing was started 5 minutes later than the administration of the acetic acid and continued for 10 minutes. The inhibition rates were determined by comparing the number of writhing of the test group with that of the control group and were shown in the following Table.

[5] = tested on: collagen aggregation; assay: Inhibitory actions on blood platelet aggregation induced by collagen (Born's nephelometry, platelet rich plasma); assay type: cell-based; details: Oryctolagus cuniculus, collagen (10µg/ml), rabbit PRP, read-out: Inhibiting rate; for inhibition at 30 µM: final concentration 30 μM; for inhibition at 10 µM: final concentration 10 μM
Description: as §1, §2

O=C(Nc1ccc(Cl)cc1)C1CCn2c1cc(-c1ccc(Cl)cc1)c2-c1ccc(Cl)cc1 (racemic) [Example 41]
inhibition at 3 µM ([1]; final concentration 3 µM): 83.4% | inhibition at 10 µM ([1]; final concentration 10 µM): 88.7% | inhibition at 30 µM ([1]; final concentration 30 µM): 89.4%

COc1ccc2c(c1)c(CC(=O)O)c(C)n2C(=O)c1ccc(Cl)cc1 [Indomethacin]
Ulcer formation [2]: 7/7

O=C(O)C1CCn2c1cc(-c1ccc(F)cc1)c2-c1ccc(F)cc1 (racemic) [Example 38]
inhibition in vivo at 30 mg/kg [3]: 47.9%

O=C(NCc1ccccc1)C1CCn2c1cc(-c1ccc(Cl)cc1)c2-c1ccc(Cl)cc1 (racemic) [Example 48]
inhibition at 3 µM ([1]; final concentration 3 µM): 14.3% | inhibition at 10 µM ([1]; final concentration 10 µM): 86.5% | inhibition at 30 µM ([1]; final concentration 30 µM): 91%

CCCCNC(=O)C1CCn2c1cc(-c1ccc(Cl)cc1)c2-c1ccc(Cl)cc1 (racemic) [Example 8, N-bytyl-5,6-bis(p-chlorophenyl)-1,2-dihydro-3H-pyrrolo[1,2-a]pyrrole-1-carboxylic acid amide]
Inhibiting rate ([1]; final concentration 3 µM): 92.5% | Inhibiting rate ([1]; final concentration 10 µM): 90.2% | Inhibiting rate ([1]; final concentration 30 µM): 92.5%

CC(C)OC(=O)C1CCn2c(-c3ccc(F)cc3)c(-c3ccc(F)cc3)c(C(=O)O)c21 (racemic) [Example 25]
inhibition in vivo at 30 mg/kg [3]: 30.1% | Inhibition rate [4]: 49.1%

COc1ccc(-c2cc3n(c2-c2ccc(OC)cc2)CCC3C(=O)O)cc1 (racemic) [Example 39]
inhibition at 30 µM [5]: 61.7% | inhibition in vivo at 15 mg/kg [3]: 34.7%

O=C(C1CCn2c1cc(-c1ccc(Cl)cc1)c2-c1ccc(Cl)cc1)N1CCOCC1 (racemic) [Example 61]
inhibition at 3 µM ([1]; final concentration 3 µM): 10.1% | inhibition at 10 µM ([1]; final concentration 10 µM): 89.4% | inhibition at 30 µM ([1]; final concentration 30 µM): 91.4%

O=C(Nc1ccccn1)C1CCn2c1cc(-c1ccc(Cl)cc1)c2-c1ccc(Cl)cc1 (racemic) [Example 46]
inhibition at 10 µM [5]: 64% | inhibition in vivo at 30 mg/kg [3]: 39.4%

O=C(O)c1c(-c2ccc(F)cc2)c(-c2ccc(F)cc2)n2c1C(C(=O)O)CC2 (racemic) [Example 17]
inhibition in vivo at 30 mg/kg [3]: 42.9% | Inhibition rate [4]: 78.4%

CN1CCN(NC(=O)C2CCn3c2cc(-c2ccc(Cl)cc2)c3-c2ccc(Cl)cc2)CC1 (racemic) [Example 59]
inhibition at 10 µM [5]: 83.4% | inhibition in vivo at 30 mg/kg [3]: 30.5%

CC(C)OC(=O)C1CCn2c(-c3ccc(Cl)cc3)c(-c3ccc(Cl)cc3)c(C(=O)O)c21 (racemic) [Example 4, 5,6-bis(p-chlorophenyl)-1,2-dihydro-3H-pyrrolo[1,2-a]pyrrole-1-isopropyl carboxylate ester-7-carboxylic acid]
inhibition in vivo at 30 mg/kg [3]: 31.2% | Inhibition rate [4]: 56.4%

Cc1ccc(-c2cc3n(c2-c2ccc(C)cc2)CCC3C(=O)O)cc1 (racemic) [Example 37]
inhibition at 30 µM [5]: 53.7% | inhibition in vivo at 15 mg/kg [3]: 27.8% | Inhibition rate [4]: 45.4%

O=C(O)C1CCn2c1cc(-c1ccc(Cl)cc1)c2-c1ccc(Cl)cc1 (stereo not drawn) [Example 6, 5,6-bis(p-chlorophenyl)-1,2-dihydro-3H-pyrrolo[1,2-a]pyrrole-1-carboxylic acid]
inhibition in vivo at 30 mg/kg [3]: 52.3% | Inhibition rate [4]: 81.3%

O=C(NC1CCCCC1)C1CCn2c1cc(-c1ccc(Cl)cc1)c2-c1ccc(Cl)cc1 (racemic) [Example 54]
inhibition at 10 µM [5]: 79.5% | inhibition in vivo at 30 mg/kg [3]: 40.2% | inhibition at 3 µM ([1]; final concentration 3 µM): 93.5% | inhibition at 10 µM ([1]; final concentration 10 µM): 93.5% | inhibition at 30 µM ([1]; final concentration 30 µM): 91.9%

O=C(NCCCN1CCOCC1)C1CCn2c1cc(-c1ccc(Cl)cc1)c2-c1ccc(Cl)cc1 (racemic) [Example 57]
inhibition at 10 µM [5]: 89.6% | inhibition in vivo at 30 mg/kg [3]: 31.9%

O=C(O)c1c(-c2ccc(Cl)cc2)c(-c2ccc(Cl)cc2)n2c1C(C(=O)O)CC2 (stereo not drawn) [Example 3, 5,6-bis(p-chlorophenyl)-1,2-dihydro-3H-pyrrolo[1,2-a]-pyrrole-1,7-dicarboxylic acid]
inhibition in vivo at 30 mg/kg [3]: 44.7% | Inhibition rate [4]: 71.5%

O=C(Nc1ccccc1)C1CCn2c1cc(-c1ccc(Cl)cc1)c2-c1ccc(Cl)cc1 (racemic) [Example 7, N-phenyl-5,6-bis(p-chlorophenyl)-1,2-dihydro-3H-pyrrolo[1,2-a]pyrrole-1-carboxylic acid amide]
inhibition at 10 µM [5]: 78% | inhibition in vivo at 30 mg/kg [3]: 37.4%

COc1ccc(-c2c(-c3ccc(Cl)cc3)cc3n2CCC3C(=O)O)cc1 (racemic) [Example 40]
inhibition at 30 µM [5]: 63.8% | inhibition in vivo at 30 mg/kg [3]: 48.2% | Inhibition rate [4]: 87.3%
